Measured values: PubChem BioAssay AID330 (DTP/NCI, 2004)
Values joined by “and” are separate entries in the source; they are usually repeats but may differ in a detail not shown here. Identical values can stand only once. Toxic doses and inconclusive results are not listed. Square brackets hold non-standard residues; d marks the D form. Peptide text beside a SMILES is read from it. * marks the point of attachment. ξ: configuration not given here. ξAsp(βξ-Me) = CC(C(=O)O)C(N)C(=O)O; X11 = CC(N*)C1NC(=O)C2CCCCN2C1=O; ξAbu(3ξ-NH2) = CC(N)C(N)C(=O)O; X10 = CCC(C)CCC/C=C/CC(=O)*

Tested on: P388 leukemia ip, CD2F1 mice, survival T/C
Experiment: NCI In Vivo Anticancer Drug Screen. Data for tumor model P388 Leukemia (intraperitoneal) in CD2F1 (CDF1) mice
Conditions: endpoint: median survival time, higher = longer survival
Outline: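 Mice carrying the transplanted tumor received test compound or vehicle. Survival was recorded in each group, and the value is the treated-group measurement divided by that of the vehicle-treated control group.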

[1] = dose: 100.0 mg/kg/injection, schedule: Q04DX003 (ip), vehicle: Klucel (hydroxypropylcellulose) (HPC)
[2] = dose: 200.0 mg/kg/injection, schedule: Q04DX003 (ip), vehicle: Klucel (hydroxypropylcellulose) (HPC)
[3] = dose: 100.0 mg/kg/injection, schedule: Q01DX001 (ip), vehicle: Klucel (hydroxypropylcellulose) (HPC)
[4] = dose: 200.0 mg/kg/injection, schedule: Q01DX001 (ip), vehicle: Klucel (hydroxypropylcellulose) (HPC)
[5] = dose: 400.0 mg/kg/injection, schedule: Q01DX001 (ip), vehicle: Klucel (hydroxypropylcellulose) (HPC)
[6] = dose: 60.0 mg/kg/injection, schedule: Q01DX005 (ip), vehicle: saline with Tween-80
[7] = dose: 120.0 mg/kg/injection, schedule: Q01DX005 (ip), vehicle: saline with Tween-80
[8] = dose: 240.0 mg/kg/injection, schedule: Q01DX005 (ip), vehicle: saline with Tween-80
[9] = dose: 50.0 mg/kg/injection, schedule: Q01DX009 (ip), vehicle: Klucel (hydroxypropylcellulose) (HPC)
[10] = dose: 50.0 mg/kg/injection, schedule: Q01DX009 (ip), vehicle: saline with Tween-80
[11] = dose: 12.5 mg/kg/injection, schedule: Q01DX009 (ip), vehicle: saline with Tween-80

SMILES: COc1cc2c(c(OC)c1OC)CCC/C2=N\NC(N)=S
- T/C [1]: 92 % of control
- T/C [2]: 92 % of control
- T/C (dose: 400.0 mg/kg/injection, schedule: Q04DX003 (ip), vehicle: Klucel (hydroxypropylcellulose) (HPC)): 86 % of control

SMILES: CCCCCCCCCCCCCCCCS(=O)(=O)c1ccc(S(=O)(=O)F)cc1NC(C)=O
- T/C (dose: 50.0 mg/kg/injection, schedule: Q04DX003 (ip), vehicle: saline sonified): 104 % of control
- T/C (dose: 100.0 mg/kg/injection, schedule: Q04DX003 (ip), vehicle: saline sonified): 95 % of control
- T/C (dose: 200.0 mg/kg/injection, schedule: Q04DX003 (ip), vehicle: saline sonified): 100 % of control

SMILES: CC(=O)N1C(=O)Cc2ccccc21
- T/C [3]: 94 % of control
- T/C [4]: 90 % of control
- T/C [5]: 91 % of control

SMILES: c1csc(C2N3CCN(CC3)C(c3cccs3)N3CCN2CC3)c1 (centres undefined)
- T/C [6]: 100 % of control
- T/C [7]: 104 % of control
- T/C [8]: 103 % of control

SMILES: Cc1ccc(S(=O)(=O)NC(=S)c2ccccc2C(=S)NS(=O)(=O)c2ccc(C)cc2)cc1
- T/C (dose: 100.0 mg/kg/injection, schedule: Q01DX001 (ip), vehicle: saline with Tween-80): 103 % of control
- T/C (dose: 200.0 mg/kg/injection, schedule: Q01DX001 (ip), vehicle: saline with Tween-80): 110 % of control
- T/C (dose: 400.0 mg/kg/injection, schedule: Q01DX001 (ip), vehicle: saline with Tween-80): 104 % of control

SMILES: CC(=O)N(C(C)=O)c1ccc(C)cc1
- T/C (dose: 12.5 mg/kg/injection, schedule: Q01DX009 (ip), vehicle: Klucel (hydroxypropylcellulose) (HPC)): 94 % of control
- T/C (dose: 25.0 mg/kg/injection, schedule: Q01DX009 (ip), vehicle: Klucel (hydroxypropylcellulose) (HPC)): 94 % of control
- T/C [9]: 100 % of control

SMILES: Cc1cn(CCCSCC2OC3OC4C(CO)OC(OC5C(CO)OC(OC6C(CO)OC(OC7C(CO)OC(OC8C(CO)OC(OC9C(CO)OC(OC2C(O)C3O)C(O)C9O)C(O)C8O)C(O)C7O)C(O)C6O)C(O)C5O)C(O)C4O)c(=O)[nH]c1=O (centres undefined)
- T/C (dose: 50.0 mg/kg/injection, schedule: Q01DX005 (ip), vehicle: saline): 103 % of control
- T/C (dose: 100.0 mg/kg/injection, schedule: Q01DX005 (ip), vehicle: saline): 100 % of control
- T/C (dose: 200.0 mg/kg/injection, schedule: Q01DX005 (ip), vehicle: saline): 98 % of control

SMILES: COc1ccc(C2CC(c3ccccc3)=Nc3ccccc3S2)cc1 (centres undefined)
- T/C [9]: 101 % of control
- T/C (dose: 100.0 mg/kg/injection, schedule: Q01DX009 (ip), vehicle: Klucel (hydroxypropylcellulose) (HPC)): 108 % of control
- T/C (dose: 200.0 mg/kg/injection, schedule: Q01DX009 (ip), vehicle: Klucel (hydroxypropylcellulose) (HPC)): 108 % of control

SMILES: COC(=O)c1noc2c1CSC1=C2CS(=O)(=O)c2ccccc21
- T/C [6]: 104 % of control
- T/C [7]: 104 % of control
- T/C [8]: 98 % of control

SMILES: COc1ccc(C(=O)c2ccccc2)c(OC(=O)Nc2c(Cl)cccc2Cl)c1
- T/C [6]: 93 % of control
- T/C [7]: 107 % of control
- T/C [8]: 88 % of control

SMILES: CN(c1ccc(Cc2ccc(N(C)S(C)(=O)=O)cc2)cc1)S(C)(=O)=O
- T/C (dose: 50.0 mg/kg/injection, schedule: Q04DX002 (ip), vehicle: saline with Tween-80): 110 % of control
- T/C (dose: 100.0 mg/kg/injection, schedule: Q04DX002 (ip), vehicle: saline with Tween-80): 101 % of control
- T/C (dose: 200.0 mg/kg/injection, schedule: Q04DX002 (ip), vehicle: saline with Tween-80): 94 % of control
- T/C (dose: 400.0 mg/kg/injection, schedule: Q04DX002 (ip), vehicle: saline with Tween-80): 92 % of control

SMILES: C=CCSc1nc(N)nc2nc[nH]c12
- T/C [10]: 100 % of control
- T/C (dose: 100.0 mg/kg/injection, schedule: Q01DX009 (ip), vehicle: saline with Tween-80): 100 % of control
- T/C (dose: 200.0 mg/kg/injection, schedule: Q01DX009 (ip), vehicle: saline with Tween-80): 90 % of control

SMILES: O=C(O)CCC1CC(=O)OC1c1ccccc1 (centres undefined)
- T/C [3]: 94 % of control
- T/C [4]: 94 % of control
- T/C [5]: 94 % of control

SMILES: CCC(C)CCC/C=C/CC(=O)NC(CC(=O)O)C(=O)NC(C(=O)NC(CC(=O)O)C(=O)NCC(=O)NC(CC(=O)O)C(=O)NCC(=O)NC(C(=O)NC(C(=O)N1CCCC1C(=O)NC(C)C1NC(=O)C2CCCCN2C1=O)C(C)C)C(C)N)C(C)C(=O)O (stereo not drawn) (X10-D[ξAsp(βξ-Me)]DGDG[ξAbu(3ξ-NH2)]VP-X11; configuration not given here)
- T/C (dose: 25.0 mg/kg/injection, schedule: Q01DX009 (ip), vehicle: saline + alcohol): 103 % of control
- T/C (dose: 50.0 mg/kg/injection, schedule: Q01DX009 (ip), vehicle: saline + alcohol): 103 % of control
- T/C (dose: 100.0 mg/kg/injection, schedule: Q01DX009 (ip), vehicle: saline + alcohol): 107 % of control and 88 % of control

SMILES: COc1ccc(C2CC(=O)N(c3nccc(C)n3)C(=O)C2)cc1
- T/C (dose: 100.0 mg/kg/injection, schedule: Q04DX003 (ip), vehicle: saline): 98 % of control
- T/C (dose: 200.0 mg/kg/injection, schedule: Q04DX003 (ip), vehicle: saline): 99 % of control
- T/C (dose: 400.0 mg/kg/injection, schedule: Q04DX003 (ip), vehicle: saline): 94 % of control

SMILES: CCC1(O)CN2CCc3c([nH]c4ccccc34)C1C(/C=C(\C(=O)OC)c1cc3c(cc1OC)N(C)C1C(O)(C(=O)OC)C(OC(C)=O)C4(CC)C=CCN5CCC31C54)C2 (centres undefined)
- T/C (dose: 1.0 mg/kg/injection, schedule: Q01DX001 (ip), vehicle: distilled water + Tween-80): 102 % of control
- T/C (dose: 2.0 mg/kg/injection, schedule: Q01DX001 (ip), vehicle: distilled water + Tween-80): 100 % of control
- T/C (dose: 2.0 mg/kg/injection, schedule: Q01DX009 (ip), vehicle: distilled water + alcohol): 160 % of control
- T/C (dose: 4.0 mg/kg/injection, schedule: Q01DX001 (ip), vehicle: distilled water + Tween-80): 100 % of control
- T/C (dose: 4.0 mg/kg/injection, schedule: Q01DX009 (ip), vehicle: distilled water + alcohol): 152 % of control
- T/C (dose: 8.0 mg/kg/injection, schedule: Q01DX001 (ip), vehicle: distilled water + Tween-80): 102 % of control
- T/C (dose: 16.0 mg/kg/injection, schedule: Q01DX001 (ip), vehicle: distilled water + Tween-80): 112 % of control
- T/C (dose: 32.0 mg/kg/injection, schedule: Q01DX001 (ip), vehicle: distilled water + Tween-80): 100 % of control

SMILES: COc1ccc(/C(=N/N)c2ccccc2)cc1
- T/C [1]: 100 % of control
- T/C [2]: 114 % of control

SMILES: CCOCC(=O)N[C@H]1CCc2cc(OC)c(OC)c(OC)c2-c2ccc(OC)c(=O)cc21
- T/C (dose: 0.31 mg/kg/injection, schedule: Q01DX009 (ip), vehicle: water): 150 % of control
- T/C (dose: 0.63 mg/kg/injection, schedule: Q01DX009 (ip), vehicle: water): 171 % of control
- T/C (dose: 1.25 mg/kg/injection, schedule: Q01DX009 (ip), vehicle: water): 198 % of control and 221 % of control

SMILES: COc1cc([C@@H]2c3cc4c(cc3[C@H](O)[C@H]3COC(=O)[C@H]23)OCO4)cc(OC)c1OC
- T/C (dose: 0.5 mg/kg/injection, schedule: Q01DX005 (ip), vehicle: Klucel (hydroxypropylcellulose) (HPC)): 121 % of control
- T/C (dose: 1.0 mg/kg/injection, schedule: Q01DX005 (ip), vehicle: Klucel (hydroxypropylcellulose) (HPC)): 117 % of control
- T/C (dose: 1.0 mg/kg/injection, schedule: Q01DX005 (ip), vehicle: saline with Tween-80): 118 % of control
- T/C (dose: 2.0 mg/kg/injection, schedule: Q01DX005 (ip), vehicle: saline with Tween-80): 121 % of control
- T/C (dose: 8.0 mg/kg/injection, schedule: Q01DX005 (ip), vehicle: Klucel (hydroxypropylcellulose) (HPC)): 152 % of control

SMILES: COc1cc(Cc2nc3n(O)cc(-c4ccccc4)nc-3c(=N)n2)cc(OC)c1OC
- T/C [11]: 104 % of control
- T/C (dose: 25.0 mg/kg/injection, schedule: Q01DX009 (ip), vehicle: saline with Tween-80): 108 % of control
- T/C [10]: 104 % of control

SMILES: O=C1C(=O)c2ccccc2C(O)=C1Sc1ccc2ccccc2c1
- T/C (dose: 3.13 mg/kg/injection, schedule: Q01DX009 (ip), vehicle: saline with Tween-80): 100 % of control
- T/C (dose: 6.25 mg/kg/injection, schedule: Q01DX009 (ip), vehicle: saline with Tween-80): 99 % of control
- T/C [11]: 95 % of control

SMILES: CN1CCCC(CN2c3ccccc3Sc3ccccc32)C1 (centres undefined)
- T/C (dose: 12.5 mg/kg/injection, schedule: Q01DX005 (ip), vehicle: saline with Tween-80): 100 % of control
- T/C (dose: 25.0 mg/kg/injection, schedule: Q01DX005 (ip), vehicle: saline with Tween-80): 102 % of control
- T/C (dose: 50.0 mg/kg/injection, schedule: Q01DX005 (ip), vehicle: saline with Tween-80): 104 % of control and 105 % of control
- T/C (dose: 100.0 mg/kg/injection, schedule: Q01DX005 (ip), vehicle: saline with Tween-80): 111 % of control
